Results: ChEMBL document CHEMBL1201862, “PubChem BioAssay data set” (2004)
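Assay format: 96-well plates, 48-hour exposure. GI50 is the concentration that inhibits growth by half.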 Active and inactive are the calls of the source. Cut-off read from the data, not from the text of the source: active = GI50 up to about 1.1 µM and inactive = higher.

Columns and labels:
Test in all cases: NCI tumour cell line growth inhibition, 48 h
Hs-578T = test system: Hs-578T
RPMI-8226 = test system: RPMI-8226
HL-60 = test system: HL-60
SNB-19 = test system: SNB-19
NCI-H522 = test system: NCI-H522
SF-268 = test system: SF-268
M14 = test system: M14
LOX IMVI = test system: LOX IMVI
SR = test system: SR
U-251 = test system: U-251
NCI-H460 = test system: NCI-H460
DU-145 = test system: DU-145
A549 = test system: A549
MOLT-4 = test system: MOLT-4
MDA-MB-435 = test system: MDA-MB-435
SF-539 = test system: SF-539
NCI-H23 = test system: NCI-H23
RXF 393 = test system: RXF 393
T47D = test system: T47D
COLO 205 = test system: COLO 205
EKVX = test system: EKVX
SK-MEL-2 = test system: SK-MEL-2
HOP-92 = test system: HOP-92
HCT-15 = test system: HCT-15
KM12 = test system: KM12
786-0 = test system: 786-0
Malme-3M = test system: Malme-3M
CAKI-1 = test system: CAKI-1
UACC-62 = test system: UACC-62
K562 = test system: K562
A498 = test system: A498
IGROV-1 = test system: IGROV-1
MDA-N = test system: MDA-N
SN12C = test system: SN12C
SK-MEL-28 = test system: SK-MEL-28
HOP-62 = test system: HOP-62
HCT-116 = test system: HCT-116
OVCAR-4 = test system: OVCAR-4
NCI-H226 = test system: NCI-H226
HT-29 = test system: HT-29
OVCAR-5 = test system: OVCAR-5
SNB-75 = test system: SNB-75
MCF7 = test system: MCF7
ACHN = test system: ACHN
NCI/ADR-RES = test system: NCI/ADR-RES
OVCAR-8 = test system: OVCAR-8
HCC 2998 = test system: HCC 2998
SW-620 = test system: SW-620
CCRF-CEM = test system: CCRF-CEM
UACC-257 = test system: UACC-257
MDA-MB-231 = test system: MDA-MB-231
PC-3 = test system: PC-3
TK-10 = test system: TK-10
UO-31 = test system: UO-31
OVCAR-3 = test system: OVCAR-3
SK-OV-3 = test system: SK-OV-3
SF-295 = test system: SF-295
SK-MEL-5 = test system: SK-MEL-5

For `C[C@H](CCC(=O)O)[C@H]1CC[C@H]2[C@@H]3[C@@H](O)C[C@@H]4C[C@H](O)CC[C@]4(C)[C@H]3C[C@H](O)[C@]12C`, the GI50 (Hs-578T) was 16.4 µM (inactive), the GI50 (RPMI-8226) was > 100 µM (inactive) and the GI50 (HL-60) was > 100 µM (inactive). The GI50 (SNB-19) was > 100 µM (inactive), the GI50 (NCI-H522) was > 100 µM (inactive) and the GI50 (SF-268) was > 100 µM (inactive). The GI50 (M14) was > 100 µM (inactive), the GI50 (LOX IMVI) was > 100 µM (inactive) and the GI50 (SR) was > 100 µM (inactive). For the same compound, the GI50 (U-251) was > 100 µM (inactive), the GI50 (NCI-H460) was > 100 µM (inactive) and the GI50 (DU-145) was > 100 µM (inactive). For the same compound, the GI50 (A549) was > 100 µM (inactive), the GI50 (MOLT-4) was > 100 µM (inactive) and the GI50 (MDA-MB-435) was > 100 µM (inactive). The GI50 (SF-539) was > 100 µM (inactive), the GI50 (NCI-H23) was > 100 µM (inactive) and the GI50 (RXF 393) was > 100 µM (inactive). The GI50 (T47D) was > 100 µM (inactive), the GI50 (COLO 205) was > 100 µM (inactive) and the GI50 (EKVX) was > 100 µM (inactive). The GI50 (SK-MEL-2) was > 100 µM (inactive), the GI50 (HOP-92) was > 100 µM (inactive) and the GI50 (HCT-15) was over 100 µM. For the same compound, the GI50 (KM12) was > 100 µM (inactive), the GI50 (786-0) was > 100 µM (inactive) and the GI50 (Malme-3M) was > 100 µM (inactive). The GI50 (CAKI-1) was > 100 µM (inactive), the GI50 (UACC-62) was > 100 µM (inactive) and the GI50 (K562) was > 100 µM (inactive). The GI50 (A498) was > 100 µM (inactive), the GI50 (IGROV-1) was > 100 µM (inactive) and the GI50 (MDA-N) was > 100 µM (inactive). For the same compound, the GI50 (SN12C) was > 100 µM (inactive), the GI50 (SK-MEL-28) was > 100 µM (inactive) and the GI50 (HOP-62) was > 100 µM (inactive). For the same compound, the GI50 (HCT-116) was > 100 µM (inactive), the GI50 (OVCAR-4) was > 100 µM (inactive) and the GI50 (NCI-H226) was > 100 µM (inactive). The GI50 (HT-29) was > 100 µM (inactive), the GI50 (OVCAR-5) was > 100 µM (inactive) and the GI50 (SNB-75) was > 100 µM (inactive). For the same compound, the GI50 (MCF7) was > 100 µM (inactive), the GI50 (ACHN) was > 100 µM (inactive) and the GI50 (NCI/ADR-RES) was > 100 µM (inactive). The GI50 (OVCAR-8) was > 100 µM (inactive), the GI50 (HCC 2998) was > 100 µM (inactive) and the GI50 (SW-620) was > 100 µM (inactive). The GI50 (CCRF-CEM) was > 100 µM (inactive), the GI50 (UACC-257) was > 100 µM (inactive) and the GI50 (MDA-MB-231) was > 100 µM (inactive). For the same compound, the GI50 (PC-3) was > 100 µM (inactive) and the GI50 (TK-10) was > 100 µM (inactive).

With `[N-]=[N+]=NI1OC(C(F)(F)F)(C(F)(F)F)c2ccccc21` the GI50 (Hs-578T) was 12.6 µM (inactive), the GI50 (RPMI-8226) was 12.1 µM (inactive) and the GI50 (HL-60) was 15.4 µM (inactive). The GI50 (SNB-19) was > 100 µM (inactive), the GI50 (UO-31) was 11 µM (inactive) and the GI50 (NCI-H522) was 5.83 µM (inactive). The GI50 (SF-268) was 13.6 µM (inactive), the GI50 (M14) was 31.2 µM (inactive) and the GI50 (LOX IMVI) was 15.2 µM (inactive). The GI50 (SR) was 15.6 µM (inactive), the GI50 (U-251) was 18.1 µM (inactive) and the GI50 (DU-145) was 18 µM (inactive). For the same compound, the GI50 (A549) was 14.9 µM (inactive), the GI50 (MOLT-4) was 14.7 µM (inactive) and the GI50 (MDA-MB-435) was 17.5 µM (inactive). The GI50 (SF-539) was 16.5 µM (inactive), the GI50 (NCI-H23) was 17.8 µM (inactive) and the GI50 (RXF 393) was 14 µM (inactive). For the same compound, the GI50 (T47D) was 12.1 µM (inactive), the GI50 (COLO 205) was 13.8 µM (inactive) and the GI50 (EKVX) was 16.9 µM (inactive). For the same compound, the GI50 (SK-MEL-2) was 16 µM (inactive), the GI50 (HOP-92) was 13.4 µM (inactive) and the GI50 (HCT-15) was 8.18 µM. For the same compound, the GI50 (OVCAR-3) was 14.7 µM (inactive), the GI50 (KM12) was 15.6 µM (inactive) and the GI50 (SK-OV-3) was 21.5 µM (inactive). For the same compound, the GI50 (786-0) was 15.5 µM (inactive), the GI50 (CAKI-1) was 8.55 µM (inactive) and the GI50 (UACC-62) was 18 µM (inactive). For the same compound, the GI50 (K562) was 11.5 µM (inactive), the GI50 (A498) was 17 µM (inactive) and the GI50 (IGROV-1) was 16.3 µM (inactive). For the same compound, the GI50 (SN12C) was 14.6 µM (inactive), the GI50 (SK-MEL-28) was 13.9 µM (inactive) and the GI50 (SF-295) was 16 µM (inactive). The GI50 (HOP-62) was 15.1 µM (inactive), the GI50 (HCT-116) was 17.3 µM (inactive) and the GI50 (OVCAR-4) was 15.1 µM (inactive). The GI50 (NCI-H226) was 18.4 µM (inactive), the GI50 (SK-MEL-5) was 1.24 µM (inactive) and the GI50 (HT-29) was 17.3 µM (inactive). For the same compound, the GI50 (OVCAR-5) was 15.1 µM (inactive), the GI50 (SNB-75) was 13.5 µM (inactive) and the GI50 (MCF7) was 12.9 µM (inactive). For the same compound, the GI50 (ACHN) was 13.9 µM (inactive), the GI50 (NCI/ADR-RES) was 18.6 µM (inactive) and the GI50 (OVCAR-8) was 16.3 µM (inactive). For the same compound, the GI50 (HCC 2998) was 17.9 µM (inactive), the GI50 (SW-620) was 19.1 µM (inactive) and the GI50 (CCRF-CEM) was 7.85 µM (inactive). The GI50 (UACC-257) was 24.5 µM (inactive), the GI50 (MDA-MB-231) was 15.1 µM (inactive) and the GI50 (PC-3) was 15.7 µM (inactive). For the same compound, the GI50 (TK-10) was 16.5 µM (inactive).
